Patent US12678428B2, “Synergistic composition for inhibiting vascular calcification” (Celagenex Research (India) Pvt. Ltd., priority 2021, dated 2026)

Tests used:
[1] = In vitro cytotoxicity by MTT assay in HaCaT cells; assay type: cell-based; details: human, HaCaT keratinocyte cells
Procedure: The in vitro cytotoxicity was performed on Human Keratinocytes (HaCaT) cell line to find the non-toxic concentrations of the test substances by MTT assay and evaluate their cytoprotective activity against advanced glycation end product (AGE) induced oxidative stress in Human Keratinocytes.
About 10 mg of the test substance was dissolved separately with 1 mL DMEM-HG supplemented with 2% inactivated FBS to obtain a stock solution of 10 mg/mL concentration and sterilized by 0.22μ syringe filtration. Dilute the stock to desired concentrations for carrying out further studies.
HaCaT (Human Keratinocytes cells) was procured from AddexBio, U.S. Stock cells were cultured in DMEM-HG supplemented with 10% inactivated Fetal Bovine Serum (FBS), penicillin (100 IU/mL), streptomycin (100 μg/mL) and amphotericin B (5 μg/mL) in humidified atmosphere of 5% CO2 at 37° C. until confluent. The cells were dissociated with TPVG solution (0.2% trypsin, 0.02% EDTA, 0.05% glucose in PBS). The stock cultures were grown in 25 cm^2 culture flasks and all experiments were carried out in 96 microtitre plates (Tarsons India Pvt. Ltd., Kolkata, India).
The cell culture monolayer was trypsinized and the cell count was adjusted to 1.0×10^5 cells/mL using DMEM-HG containing 10% FBS. To each well of the 96 well microtitre plate, 0.1 mL of the diluted cell suspension was added. After 24 hours, when a partial monolayer was formed, the supernatant was flicked off, the monolayer was washed once with PBS and 100 μL of different concentrations of test substance was added. The plate was then incubated at 37° C. for 24 hours in a 5% CO2 atmosphere, and microscopic examination was carried out and observations were noted after 24 h time.
After 24 hours of incubation, the drug solution in the wells was discarded and 50 μL of MTT in DPBS was added to each well. The plate was gently shaken and incubated for 3 hours at 37° C. in a 5% CO2 atmosphere. The supernatant was removed and 100 μL of DMSO was added and the plate was gently shaken to solubilize the formed formazan. The absorbance was measured using a micro plate reader at a wavelength of 570 nm. The percentage growth inhibition was calculated using the standard formula. The concentration of test substance, needed to inhibit the growth of the cell by 50% i.e., CTC50 values were generated from the dose-response curves.

[2] = test system: Human Keratinocytes cell line (HaCaT); test: Cytoprotective activity against AGE (methylglyoxal) induced oxidative stress, tryphan blue dye exclusion assay; assay type: cell-based; details: HaCaT cells treated with Methylglyoxal and test substance, 24 h; Metformin 5 mg; Test I 3.5 mg; Test II 0.5 mg; Test III 5 mg + 0.02 mg; Test IV 0.2 mg + 0.2 mg; Test V 3.5 mg + 0.5 mg
Procedure: (§1) The purpose of this study is to evaluate cytoprotective activity of test substance against advanced glycation end product (AGE) induced oxidative stress in Human Keratinocytes cell line (HaCaT). About 10 mg of the test substance was dissolved separately with 1 mL DMEM-HG supplemented with 2% inactivated FBS to obtain a stock solution of 10 mg/mL concentration and sterilized by 0.22μ syringe filtration. Dilute the stock to desired concentrations for carrying out further studies. HaCaT (Human Keratinocytes cells) was procured from AddexBio, U.S. Stock cells were cultured in DMEM-HG supplemented with 10% inactivated Fetal Bovine Serum (FBS), penicillin (100 IU/mL), streptomycin (100 μg/mL) and amphotericin B (5 μg/mL) in humidified atmosphere of 5% CO2 at 37° C. until confluent. The cells were dissociated with TPVG solution (0.2% trypsin, 0.02% EDTA, 0.05% glucose in PBS). The stock cultures were grown in 25 cm^2 culture flasks and all experiments were carried out in 96 microtitre plates (Tarsons India Pvt. Ltd., Kolkata, India). [table] The monolayer cell culture was trypsinized and the cell count was adjusted to 1.5×10^5 cells/mL using DMEM-HG containing 10% FBS. To each well of the 6 well plates, 2 mL of the diluted cell suspension was added. After 24 hours, when a partial monolayer was formed, supernatant was removed and washed the monolayer once with PBS and 1 mL of different test concentrations and combinations of test substances were added. The plate was then incubated at 37° C. for 24 h in a 5% CO2 atmosphere, and microscopic examination was carried out and observations were noted after 24 hours time. After 24 hours, the media was discarded and cells were trypsinized and pelleted by centrifugation, suspended in 1 mL of fresh media and performed dye exclusion test, i.e., mixed equal volume of cells suspended media and Tryphan blue. Viable and non-viable cells were counted using haemocytometer and values were recorded, and then percentage cell viability was calculated.

[3] = as above; assay type: cell-based, Human; details: human, HaCaT keratinocyte cells, HaCaT cells treated only with Methylglyoxal 300 μM (positive control)
Procedure: as §1

## Cc1ncc(CO)c(CN)c1O [2-methyl-4-aminomethyl-5-hydroxymethyl-3-Pyridinol]
[1]; test concentration 0.125 mg/mL
  cytotoxicity at 24 h, 0.125 mg/mL: 4.55%
[1]; test concentration 0.25 mg/mL
  cytotoxicity at 24 h, 0.25 mg/mL: 5.68%
[1]; test concentration 0.5 mg/mL
  cytotoxicity at 24 h, 0.5 mg/mL: 25.6%
[1]; test concentration 1 mg/mL
  cytotoxicity at 24 h, 1 mg/mL: 63.4%
[1]; test concentration 2 mg/mL
  cytotoxicity at 24 h, 2 mg/mL: 67%
[1]; test concentration 3 mg/mL
  cytotoxicity at 24 h, 3 mg/mL: 67.5%
[1]; test concentration 4 mg/mL
  cytotoxicity at 24 h, 4 mg/mL: 75.8%
[1]; test concentration 5 mg/mL
  cytotoxicity at 24 h, 5 mg/mL: 76%
[2]
  % Viability: 41.23%

## CN(C)C(=N)N=C(N)N [Metformin, reference compound]
[2]
  % Viability: 70.79%

## CC(=O)C=O [Methylglyoxal, reference compound]
[3]
  viability at 24 h, 300 μM: ~38.8%

## CC(=O)NCCS(=O)(=O)O.[Mg] [Test I, Magnesium 2-acetylamino ethane sulfonic acid]
[2]
  % Viability: 42.39%
